Converted amounts (≈) assume the structure as drawn. Each block holds one molecule with its values, some of them ahead of it.
Columns and labels:
[1] = molecular target: Phosphatidylinositol 4,5-bisphosphate 3-kinase catalytic subunit alpha isoform (Homo sapiens, UniProt P42336); assay: Inhibition of PI3Kalpha
[2] = Plasma clearance in rat; assay type: ADME, organism-based
MCF7 = assay: Cytotoxicity against human MCF7 cells; assay type: functional, cell-based
[3] = Plasma protein binding in mouse; assay type: ADME, cell-free; conditions: read-out: PPB (converted)
Mus musculus [4] = assay: In vivo inhibition of PI3K in human PC3 cells xenografted athymic nude mouse assessed as reduction of phosphorylated Akt level at 50 mg/kg, po after 1 hr; assay type: functional; conditions: PC-3, 1 h
[5] = Apparent permeability of the compound from apical to basolateral direction in MDCKI cells; assay type: ADME, cell-based, Canis lupus familiaris; conditions: dog, MDCK
Mus musculus [6] = assay: In vivo inhibition of PI3K in human PC3 cells xenografted athymic nude mouse assessed as reduction of phosphorylated S6RP level at 50 mg/kg, po after 6 hrs; assay type: functional; conditions: PC-3, 6 h
Mus musculus [7] = assay: In vivo inhibition of PI3K in human PC3 cells xenografted athymic nude mouse assessed as reduction of phosphorylated PRAS40 level at 50 mg/kg, po after 1 hr; assay type: functional; conditions: PC-3, 1 h
[8] = Volume of distribution at steady state in human PC3 cells xenografted athymic nude mouse; assay type: ADME, organism-based, PC-3; conditions: in vivo, read-out: Vdss
[9] = Plasma clearance in human PC3 cells xenografted athymic nude mouse; assay type: ADME, organism-based, PC-3
[10] = Oral bioavailability in human PC3 cells xenografted athymic nude mouse at 5 mg/kg; assay type: ADME, organism-based, PC-3; conditions: in vivo
Mus musculus [11] = assay: In vivo inhibition of PI3K in human PC3 cells xenografted athymic nude mouse assessed as reduction of phosphorylated Akt level at 50 mg/kg, po after 6 hrs; assay type: functional; conditions: PC-3, 6 h
[12] = Metabolic stability in mouse hepatocytes assessed as compound remaining after 3 hrs; assay type: ADME, cell-based, Hepatocyte; conditions: read-out: Stability
[13] = molecular target: Serine/threonine-protein kinase mTOR (Homo sapiens, UniProt P42345); assay: Inhibition of mTOR; conditions: read-out: Ki(app)
[14] = Inhibition of human Cytochrome P450; assay type: ADME
Mus musculus [15] = assay: In vivo inhibition of PI3K in human PC3 cells xenografted athymic nude mouse assessed as reduction of phosphorylated S6RP level at 50 mg/kg, po after 1 hr; assay type: functional; conditions: PC-3, 1 h
[16] = Metabolic stability in human hepatocytes assessed as compound remaining after 3 hrs; assay type: ADME, cell-based, Hepatocyte; conditions: read-out: Stability
MDR1 = assay: Apparent permeability of the compound from apical to basolateral direction in MDCKI cells expressing MDR1; assay type: ADME, cell-based, Canis lupus familiaris; conditions: dog, MDCK-MDR1
[17] = molecular target: Receptor-type tyrosine-protein kinase FLT3 (Homo sapiens) (UniProt P36888); assay: Inhibition of FLT3 at 1 uM
Receptor-type tyrosine-protein kinase FLT3 (Homo sapiens), sequence (P36888 whole entry): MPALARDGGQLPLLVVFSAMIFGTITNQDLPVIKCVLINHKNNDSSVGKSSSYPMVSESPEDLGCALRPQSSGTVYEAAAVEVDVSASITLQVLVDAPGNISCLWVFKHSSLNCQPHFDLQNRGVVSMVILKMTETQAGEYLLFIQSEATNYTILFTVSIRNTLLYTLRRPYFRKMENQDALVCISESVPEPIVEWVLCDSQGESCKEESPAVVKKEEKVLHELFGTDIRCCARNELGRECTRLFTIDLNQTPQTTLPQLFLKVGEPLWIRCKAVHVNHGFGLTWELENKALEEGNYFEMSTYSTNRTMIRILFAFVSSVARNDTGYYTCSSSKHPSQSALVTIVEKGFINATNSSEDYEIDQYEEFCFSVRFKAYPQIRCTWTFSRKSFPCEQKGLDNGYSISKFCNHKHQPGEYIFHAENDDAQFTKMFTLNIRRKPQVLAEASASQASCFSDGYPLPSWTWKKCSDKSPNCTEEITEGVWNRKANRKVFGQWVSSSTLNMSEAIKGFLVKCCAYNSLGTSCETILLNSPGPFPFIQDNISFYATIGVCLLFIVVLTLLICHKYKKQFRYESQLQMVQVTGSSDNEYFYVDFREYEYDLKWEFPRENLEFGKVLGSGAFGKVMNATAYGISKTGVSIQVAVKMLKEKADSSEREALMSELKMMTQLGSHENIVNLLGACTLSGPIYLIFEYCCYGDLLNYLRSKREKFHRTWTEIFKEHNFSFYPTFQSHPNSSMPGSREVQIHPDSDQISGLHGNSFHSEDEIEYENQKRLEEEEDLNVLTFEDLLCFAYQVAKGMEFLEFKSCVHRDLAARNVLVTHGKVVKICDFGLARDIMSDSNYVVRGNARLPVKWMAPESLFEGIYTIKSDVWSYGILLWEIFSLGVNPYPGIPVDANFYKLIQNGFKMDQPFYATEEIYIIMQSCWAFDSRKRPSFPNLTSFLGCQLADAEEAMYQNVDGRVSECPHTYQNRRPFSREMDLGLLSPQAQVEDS

[18] = Solubility of the compound at pH 6.5; assay type: physicochemical; conditions: buffer
[19] = molecular target: DNA-dependent protein kinase catalytic subunit (Homo sapiens, UniProt P78527); assay: Inhibition of DNA-PK
[20] = Oral bioavailability in rat at 5 mg/kg; assay type: ADME, organism-based; conditions: in vivo
Mus musculus [21] = assay: In vivo inhibition of PI3K in human PC3 cells xenografted athymic nude mouse assessed as reduction of phosphorylated PRAS40 level at 50 mg/kg, po after 6 hrs; assay type: functional; conditions: PC-3, 6 h
[22] = Ratio of permeability from basolateral to apical over apical to basolateral side in MDCKI cells expressing MDR1; conditions: dog
Bcrp1 [23] = assay: Apparent permeability of the compound from apical to basolateral direction in MDCK2 cells expressing Bcrp1; assay type: ADME, cell-based, Canis lupus familiaris, MDCK-II; conditions: dog
[24] = Ratio of permeability from basolateral to apical over apical to basolateral side in MDCK2 cells expressing Bcrp1; conditions: dog, mdck-ii
[25] = Ratio of permeability from basolateral to apical over apical to basolateral side in MDCKI cells; conditions: dog
Bcrp1 [26] = assay: Apparent permeability of the compound from apical to basolateral direction in MDCK2 cells expressing Bcrp1 in presence of fumitremorgin C; assay type: ADME, cell-based, Canis lupus familiaris, MDCK-II; conditions: dog, with fumitremorgin C
[27] = Ratio of permeability from […] side in MDCK2 cells expressing Bcrp1 in presence of fumitremorgin C; assay type: ADME, cell-based, Canis lupus familiaris; conditions: dog, mdck-ii

Phosphatidylinositol 4,5-bisphosphate 3-kinase catalytic subunit alpha isoform, sequence (P42336 whole entry, canonical isoform): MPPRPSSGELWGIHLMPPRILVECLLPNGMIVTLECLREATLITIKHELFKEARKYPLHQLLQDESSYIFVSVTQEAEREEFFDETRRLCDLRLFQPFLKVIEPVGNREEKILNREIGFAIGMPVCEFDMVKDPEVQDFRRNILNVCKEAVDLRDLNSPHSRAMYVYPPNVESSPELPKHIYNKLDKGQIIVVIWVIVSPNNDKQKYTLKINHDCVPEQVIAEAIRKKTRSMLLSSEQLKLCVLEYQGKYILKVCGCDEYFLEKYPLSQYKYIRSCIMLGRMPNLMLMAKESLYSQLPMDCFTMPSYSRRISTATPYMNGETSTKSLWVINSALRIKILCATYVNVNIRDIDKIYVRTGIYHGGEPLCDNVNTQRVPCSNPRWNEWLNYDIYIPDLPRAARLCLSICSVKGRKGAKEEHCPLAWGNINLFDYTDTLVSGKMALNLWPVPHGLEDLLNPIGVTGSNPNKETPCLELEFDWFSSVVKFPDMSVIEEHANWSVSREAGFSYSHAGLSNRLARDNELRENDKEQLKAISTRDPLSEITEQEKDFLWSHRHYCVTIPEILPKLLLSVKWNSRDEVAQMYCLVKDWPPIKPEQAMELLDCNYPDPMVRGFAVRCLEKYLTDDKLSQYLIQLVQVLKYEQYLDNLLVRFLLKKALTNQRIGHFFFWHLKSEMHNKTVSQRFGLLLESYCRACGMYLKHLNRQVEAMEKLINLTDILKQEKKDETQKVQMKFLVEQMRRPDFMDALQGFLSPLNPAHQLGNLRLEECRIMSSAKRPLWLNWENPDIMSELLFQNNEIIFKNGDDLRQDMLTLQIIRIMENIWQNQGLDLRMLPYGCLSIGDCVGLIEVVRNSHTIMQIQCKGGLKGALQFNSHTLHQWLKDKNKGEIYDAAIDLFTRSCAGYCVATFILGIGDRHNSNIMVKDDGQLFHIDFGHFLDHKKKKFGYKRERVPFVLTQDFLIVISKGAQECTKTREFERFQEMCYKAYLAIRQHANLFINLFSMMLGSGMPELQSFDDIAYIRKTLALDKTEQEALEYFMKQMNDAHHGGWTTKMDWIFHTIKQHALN

IC50 [1]: 430 nM
Compound: COc1cccc(Nc2nc(N3CCC(O)CC3)nc3c2cnn3C)c1

IC50 [1]: 56 nM
Compound: COc1cccc(Nc2nc(-c3cccc(S(C)(=O)=O)c3)nc3c2cnn3C)c1

IC50 [1]: 3640 nM
Compound: CNC(=O)c1cccc(-c2nc(Nc3cccc(OC)c3)c3cnn(C)c3n2)c1

IC50 [1]: 386 nM
Compound: COc1cccc(Nc2nc(-c3cccc(NC(C)=O)c3)nc3c2cnn3C)c1

IC50 [1]: 1.4 nM
Compound: COc1cccc(Nc2nc(-c3cccc4[nH]ncc34)nc3c2cnn3C)c1

IC50 [1]: 1.1 nM
clearance [2]: 103 mL/min/kg
Compound: Cn1ncc2c(NCC(C)(C)CO)nc(-c3cccc4[nH]ncc34)nc21

IC50 [1]: 134 nM
Compound: COc1cccc(Nc2nc(-c3cccc(OC)c3)nc3c2cnn3C)c1

IC50 [1]: 72 nM
Compound: COc1cccc(Nc2nc(-c3cccc(C(N)=O)c3)nc3c2cnn3C)c1

clearance [2]: 139 mL/min/kg
Compound: Cn1ncc2c(NCCCS(C)(=O)=O)nc(-c3cccc4n[nH]cc34)nc21
EC50 (MCF7): 403 nM

IC50 [1]: 8.3 nM
clearance [2]: 176 mL/min/kg
Compound: CN1CCC(Nc2nc(-c3cccc4[nH]ncc34)nc3c2cnn3C)CC1
EC50 (MCF7): 1500 nM

IC50 [1]: 370 nM
Compound: COc1cccc(Nc2nc(N3CC(C)OC(C)C3)nc3c2cnn3C)c1 (stereo not drawn)

fraction unbound [3]: 0.012
Papp A→B [5]: 13.9 ×10⁻⁶ cm/s
Vd [8]: 1.1 L/kg
clearance [9]: 12.7 mL/min/kg
bioavailability [10]: 110%
remaining at 3 h [12]: 100%
Ki [13]: > 10000 nM
clearance [2]: 8.4 mL/min/kg
IC50 [14]: > 20000 nM
remaining at 3 h [16]: 94%
Papp A→B (MDR1): 1.2 ×10⁻⁶ cm/s
inhibition [17]: 27%
solubility [18]: 15 µg/mL (≈ 35.8 µM)
IC50 [19]: 1020 nM
bioavailability [20]: 107%
Compound: Cn1ncc2c(Oc3ccc(S(C)(=O)=O)cc3)cc(-c3cccc4[nH]ncc34)nc21
inhibition in vivo at 50 mg/kg (Mus musculus [4]): 44%
inhibition in vivo at 50 mg/kg (Mus musculus [6]): 17%
inhibition in vivo at 50 mg/kg (Mus musculus [7]): 23%
inhibition in vivo at 50 mg/kg (Mus musculus [11]): 34%
inhibition in vivo at 50 mg/kg (Mus musculus [15]): 36%
inhibition in vivo at 50 mg/kg (Mus musculus [21]): 11%

IC50 [1]: 4.9 nM
Papp A→B [5]: 31.5 ×10⁻⁶ cm/s
Ratio [22]: 3.2
Papp A→B (Bcrp1 [23]): 3.8 ×10⁻⁶ cm/s
Ratio [24]: 4.8
Papp A→B (MDR1): 7.6 ×10⁻⁶ cm/s
solubility [18]: < 1 µg/mL
Ratio [25]: 0.5
Compound: Cn1ncc2c(-c3ccc(S(C)(=O)=O)cc3)nc(-c3cccc4[nH]ncc34)nc21

IC50 [1]: 3 nM
Papp A→B [5]: 2.5 ×10⁻⁶ cm/s
Ratio [22]: 4.2
Papp A→B (Bcrp1 [23]): 0.05 ×10⁻⁶ cm/s
Ratio [24]: 55.1
clearance [2]: 2 mL/min/kg
Papp A→B (MDR1): 0.8 ×10⁻⁶ cm/s
solubility [18]: 16 µg/mL (≈ 38.1 µM)
bioavailability [20]: 29%
Ratio [25]: 0.7
Compound: Cn1ncc2c(Oc3ccc(S(C)(=O)=O)cc3)nc(-c3cccc4[nH]ncc34)nc21

Papp A→B (Bcrp1 [26]): 0.63 ×10⁻⁶ cm/s
IC50 [1]: 1.4 nM
Papp A→B [5]: 0.37 ×10⁻⁶ cm/s
Ratio [22]: 79
Papp A→B (Bcrp1 [23]): 0.03 ×10⁻⁶ cm/s
Ratio [24]: 311
clearance [2]: 20 mL/min/kg
Papp A→B (MDR1): 0.13 ×10⁻⁶ cm/s
solubility [18]: 7.1 µg/mL (≈ 16.9 µM)
Ratio [27]: 17.6
bioavailability [20]: 0%
Ratio [25]: 6.7
Compound: Cn1ncc2c(Nc3ccc(S(C)(=O)=O)cc3)nc(-c3cccc4[nH]ncc34)nc21
EC50 (MCF7): 87 nM

IC50 [1]: 29 nM
Compound: COc1cccc(Nc2nc(-c3cccnc3)nc3c2cnn3C)c1

IC50 [1]: 16 nM
Compound: COc1cccc(Nc2nc(-c3cnc(N)nc3)nc3c2cnn3C)c1

IC50 [1]: 1.7 nM
Compound: COc1cccc(Nc2nc(-c3cccc4onc(C)c34)nc3c2cnn3C)c1

IC50 [1]: 359 nM
Compound: COc1cccc(Nc2nc(N3CCCCC3)nc3c2cnn3C)c1

IC50 [1]: 11 nM
Compound: COc1cccc(Nc2nc(-c3cccc4[nH]nc(N)c34)nc3c2cnn3C)c1

IC50 [1]: 162 nM
Compound: COc1cccc(Nc2nc(N3CCOCC3)nc3c2cnn3C)c1
